According to publication PMC7316778 (Nature Communications, 2020):
“And” between values parts separate entries of the source, which are not always exact repeats. Identical values can stand only once. Like-named read-outs stand apart in the source and are kept apart here.

What was measured:
ABL1 = ABL1 (Homo sapiens, UniProt P00519); assay: SelectScreen kinase assay
Method: (§1) Selectivity profiling assays were performed by the Invitrogen SelectScreen™ Services. […] The concentration of ATP was selected to be equal to the KM, unless indicated otherwise.

CSNK1A1 (CK1 alpha 1) = CSNK1A1 (CK1 alpha 1) (Homo sapiens, UniProt P48729); assay: SelectScreen kinase assay
Method: as §1

CSNK1D (CK1 delta) = CSNK1D (CK1 delta) (Homo sapiens, UniProt P48730); assay: SelectScreen kinase assay; details: 1 h, 1 μM WEL028, 1 h preincubation
Chain of CSNK1D (CK1 delta) (P48730 whole entry): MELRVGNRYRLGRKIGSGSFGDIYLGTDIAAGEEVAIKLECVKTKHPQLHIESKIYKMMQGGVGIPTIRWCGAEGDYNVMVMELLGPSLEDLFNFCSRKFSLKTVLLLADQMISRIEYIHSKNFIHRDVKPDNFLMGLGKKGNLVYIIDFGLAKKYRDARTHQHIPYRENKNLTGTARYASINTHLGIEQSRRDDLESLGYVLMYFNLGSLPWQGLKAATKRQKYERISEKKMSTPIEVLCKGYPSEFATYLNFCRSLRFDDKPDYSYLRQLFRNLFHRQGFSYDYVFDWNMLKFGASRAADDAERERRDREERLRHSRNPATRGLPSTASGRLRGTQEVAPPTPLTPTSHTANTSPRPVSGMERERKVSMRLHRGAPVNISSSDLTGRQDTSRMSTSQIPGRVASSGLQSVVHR
Method: as §1

FYN A = FYN A (Homo sapiens, UniProt P06241); assay: SelectScreen kinase assay
Chain of FYN A (P06241 whole entry): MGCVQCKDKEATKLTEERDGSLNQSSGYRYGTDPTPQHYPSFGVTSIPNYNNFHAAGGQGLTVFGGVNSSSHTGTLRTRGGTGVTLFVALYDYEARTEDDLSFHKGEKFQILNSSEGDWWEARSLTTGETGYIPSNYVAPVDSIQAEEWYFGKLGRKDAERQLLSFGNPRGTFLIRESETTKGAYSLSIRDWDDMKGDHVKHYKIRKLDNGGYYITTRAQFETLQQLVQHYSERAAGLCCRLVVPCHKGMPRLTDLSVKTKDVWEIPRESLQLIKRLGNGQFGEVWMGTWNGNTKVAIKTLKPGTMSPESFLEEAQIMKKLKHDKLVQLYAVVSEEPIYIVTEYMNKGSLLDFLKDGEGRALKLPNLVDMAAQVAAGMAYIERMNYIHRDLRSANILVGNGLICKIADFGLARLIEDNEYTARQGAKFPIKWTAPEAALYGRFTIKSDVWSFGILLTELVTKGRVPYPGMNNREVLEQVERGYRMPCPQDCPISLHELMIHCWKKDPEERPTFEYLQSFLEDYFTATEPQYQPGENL
Method: as §1

GSK3A (GSK3 alpha) = GSK3A (GSK3 alpha) (Homo sapiens, UniProt P49840); assay: SelectScreen kinase assay
Chain of GSK3A (GSK3 alpha) (P49840 whole entry): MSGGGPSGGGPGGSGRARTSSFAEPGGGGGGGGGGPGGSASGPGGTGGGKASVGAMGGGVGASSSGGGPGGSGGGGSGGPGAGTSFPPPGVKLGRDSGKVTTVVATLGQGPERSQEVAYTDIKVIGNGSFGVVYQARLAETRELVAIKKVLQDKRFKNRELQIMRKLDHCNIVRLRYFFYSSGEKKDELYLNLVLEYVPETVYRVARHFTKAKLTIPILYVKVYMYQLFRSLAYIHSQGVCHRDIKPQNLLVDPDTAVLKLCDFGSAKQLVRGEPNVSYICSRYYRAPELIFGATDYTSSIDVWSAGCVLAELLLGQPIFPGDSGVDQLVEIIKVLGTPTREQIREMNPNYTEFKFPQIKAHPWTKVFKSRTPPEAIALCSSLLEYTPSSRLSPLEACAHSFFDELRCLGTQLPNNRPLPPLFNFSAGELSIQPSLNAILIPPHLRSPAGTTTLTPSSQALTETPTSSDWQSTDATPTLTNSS
Method: as §1

HUNK = target: T1, HUNK (Homo sapiens, UniProt P57058); assay: SelectScreen kinase assay
T1 sequence (P57058 1-714): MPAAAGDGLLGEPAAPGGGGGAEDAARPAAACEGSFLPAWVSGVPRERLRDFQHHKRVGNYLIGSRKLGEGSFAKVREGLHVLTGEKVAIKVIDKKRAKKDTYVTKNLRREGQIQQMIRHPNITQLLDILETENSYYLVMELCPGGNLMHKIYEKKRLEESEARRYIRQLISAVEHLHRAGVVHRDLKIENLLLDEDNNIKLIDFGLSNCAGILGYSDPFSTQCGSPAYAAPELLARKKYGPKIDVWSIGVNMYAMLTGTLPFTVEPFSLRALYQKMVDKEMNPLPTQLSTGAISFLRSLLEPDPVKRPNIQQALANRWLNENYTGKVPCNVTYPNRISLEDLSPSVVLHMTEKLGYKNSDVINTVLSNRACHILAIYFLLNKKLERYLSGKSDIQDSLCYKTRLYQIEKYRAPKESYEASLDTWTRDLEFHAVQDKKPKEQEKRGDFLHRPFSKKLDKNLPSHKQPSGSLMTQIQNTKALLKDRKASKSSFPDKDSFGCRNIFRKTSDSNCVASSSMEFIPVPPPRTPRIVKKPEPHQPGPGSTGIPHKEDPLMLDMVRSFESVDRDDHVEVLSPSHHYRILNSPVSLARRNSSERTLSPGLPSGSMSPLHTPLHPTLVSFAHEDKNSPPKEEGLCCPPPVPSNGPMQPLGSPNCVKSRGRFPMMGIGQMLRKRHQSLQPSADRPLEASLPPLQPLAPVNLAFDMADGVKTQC
Method: as §1

ITK = target: T2, ITK (Homo sapiens, UniProt Q08881); assay: SelectScreen kinase assay; details: for Inhibition at 1 µM (%): ITK, ZLYTE, ATP Km app
T2 sequence (Q08881 1-620): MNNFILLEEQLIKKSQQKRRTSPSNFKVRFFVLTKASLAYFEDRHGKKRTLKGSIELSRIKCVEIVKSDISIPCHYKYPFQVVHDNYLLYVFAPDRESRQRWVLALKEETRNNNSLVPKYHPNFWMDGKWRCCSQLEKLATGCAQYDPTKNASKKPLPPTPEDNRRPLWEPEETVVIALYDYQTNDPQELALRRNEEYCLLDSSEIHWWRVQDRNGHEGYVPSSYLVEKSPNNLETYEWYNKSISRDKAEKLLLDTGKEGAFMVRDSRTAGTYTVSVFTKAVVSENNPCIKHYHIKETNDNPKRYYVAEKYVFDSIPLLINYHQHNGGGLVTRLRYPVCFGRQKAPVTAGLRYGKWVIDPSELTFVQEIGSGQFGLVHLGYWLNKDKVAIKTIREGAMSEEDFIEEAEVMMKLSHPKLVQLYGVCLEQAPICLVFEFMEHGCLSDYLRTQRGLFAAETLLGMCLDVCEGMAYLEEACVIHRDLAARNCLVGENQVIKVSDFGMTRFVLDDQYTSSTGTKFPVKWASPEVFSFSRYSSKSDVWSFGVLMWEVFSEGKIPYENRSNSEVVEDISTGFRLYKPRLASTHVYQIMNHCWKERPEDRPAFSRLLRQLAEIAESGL
Method: as §1

MET (cMet) = MET (cMet) (Homo sapiens, UniProt P08581); assay: SelectScreen kinase assay
Chain of MET (cMet) (P08581 25-1390): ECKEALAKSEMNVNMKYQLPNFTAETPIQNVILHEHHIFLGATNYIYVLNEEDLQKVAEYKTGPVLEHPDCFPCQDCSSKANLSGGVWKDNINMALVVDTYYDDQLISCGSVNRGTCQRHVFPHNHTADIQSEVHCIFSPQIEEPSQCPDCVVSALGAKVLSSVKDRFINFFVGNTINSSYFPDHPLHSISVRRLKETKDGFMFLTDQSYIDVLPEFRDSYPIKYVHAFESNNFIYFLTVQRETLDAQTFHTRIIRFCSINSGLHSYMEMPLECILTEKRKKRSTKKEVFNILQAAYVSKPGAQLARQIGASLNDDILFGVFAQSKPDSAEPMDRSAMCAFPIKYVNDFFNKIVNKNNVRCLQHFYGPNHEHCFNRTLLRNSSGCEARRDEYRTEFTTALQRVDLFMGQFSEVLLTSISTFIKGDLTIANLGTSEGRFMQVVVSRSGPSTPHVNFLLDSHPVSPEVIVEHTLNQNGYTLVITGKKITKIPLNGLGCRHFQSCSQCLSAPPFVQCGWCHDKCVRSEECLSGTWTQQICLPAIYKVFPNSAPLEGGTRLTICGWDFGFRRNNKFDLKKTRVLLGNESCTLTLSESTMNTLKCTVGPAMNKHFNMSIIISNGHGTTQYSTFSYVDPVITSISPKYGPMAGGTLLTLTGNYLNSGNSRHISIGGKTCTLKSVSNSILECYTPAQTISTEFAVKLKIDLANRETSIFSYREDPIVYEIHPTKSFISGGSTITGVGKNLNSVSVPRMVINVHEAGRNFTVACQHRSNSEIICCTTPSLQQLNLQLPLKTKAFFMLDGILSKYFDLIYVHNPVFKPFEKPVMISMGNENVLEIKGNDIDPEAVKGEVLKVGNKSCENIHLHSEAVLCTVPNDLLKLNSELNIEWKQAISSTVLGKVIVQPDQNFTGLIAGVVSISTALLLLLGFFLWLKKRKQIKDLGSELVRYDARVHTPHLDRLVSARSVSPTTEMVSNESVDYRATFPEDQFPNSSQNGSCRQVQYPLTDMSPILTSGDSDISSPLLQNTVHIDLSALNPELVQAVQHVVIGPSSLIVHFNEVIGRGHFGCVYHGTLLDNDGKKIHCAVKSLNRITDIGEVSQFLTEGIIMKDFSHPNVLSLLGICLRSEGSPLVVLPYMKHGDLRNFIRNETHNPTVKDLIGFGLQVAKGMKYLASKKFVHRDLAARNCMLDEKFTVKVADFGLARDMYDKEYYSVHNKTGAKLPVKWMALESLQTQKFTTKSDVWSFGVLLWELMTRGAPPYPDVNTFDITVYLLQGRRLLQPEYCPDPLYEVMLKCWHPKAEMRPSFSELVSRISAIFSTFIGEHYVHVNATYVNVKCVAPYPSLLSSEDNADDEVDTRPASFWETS
Method: as §1

RPS6KA4 (MSK2) = RPS6KA4 (MSK2) (Homo sapiens, UniProt O75676); assay: SelectScreen kinase assay
Chain of RPS6KA4 (MSK2) (O75676 whole entry): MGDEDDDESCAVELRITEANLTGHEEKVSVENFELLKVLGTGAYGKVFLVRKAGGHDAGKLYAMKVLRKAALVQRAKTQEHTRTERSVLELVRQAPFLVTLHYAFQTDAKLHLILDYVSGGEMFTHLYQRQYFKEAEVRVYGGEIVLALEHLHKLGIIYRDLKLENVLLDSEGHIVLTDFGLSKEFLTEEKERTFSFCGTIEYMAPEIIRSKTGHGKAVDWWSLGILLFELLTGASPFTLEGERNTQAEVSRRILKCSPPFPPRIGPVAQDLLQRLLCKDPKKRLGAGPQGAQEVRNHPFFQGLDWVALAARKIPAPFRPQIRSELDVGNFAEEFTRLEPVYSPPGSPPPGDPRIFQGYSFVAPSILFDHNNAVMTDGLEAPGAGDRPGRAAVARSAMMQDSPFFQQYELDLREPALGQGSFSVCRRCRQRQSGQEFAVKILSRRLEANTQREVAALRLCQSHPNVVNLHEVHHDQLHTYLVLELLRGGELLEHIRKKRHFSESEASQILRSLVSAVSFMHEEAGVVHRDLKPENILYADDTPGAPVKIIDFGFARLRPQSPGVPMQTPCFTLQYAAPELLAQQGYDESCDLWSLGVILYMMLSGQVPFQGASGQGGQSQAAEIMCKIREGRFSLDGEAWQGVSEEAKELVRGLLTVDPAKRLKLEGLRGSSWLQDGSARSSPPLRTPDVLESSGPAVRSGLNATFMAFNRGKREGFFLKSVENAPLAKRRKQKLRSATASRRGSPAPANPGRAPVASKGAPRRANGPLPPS
Method: as §1

FES^S700C = FES^S700C (Homo sapiens, UniProt P07332, S700C); assay: Inhibitor washout by dialysis; assay type: binding; design: expressed in transfected cells; host or cells: HEK293T (transient, PEI)
Chain of FES^S700C (P07332 whole entry S700C): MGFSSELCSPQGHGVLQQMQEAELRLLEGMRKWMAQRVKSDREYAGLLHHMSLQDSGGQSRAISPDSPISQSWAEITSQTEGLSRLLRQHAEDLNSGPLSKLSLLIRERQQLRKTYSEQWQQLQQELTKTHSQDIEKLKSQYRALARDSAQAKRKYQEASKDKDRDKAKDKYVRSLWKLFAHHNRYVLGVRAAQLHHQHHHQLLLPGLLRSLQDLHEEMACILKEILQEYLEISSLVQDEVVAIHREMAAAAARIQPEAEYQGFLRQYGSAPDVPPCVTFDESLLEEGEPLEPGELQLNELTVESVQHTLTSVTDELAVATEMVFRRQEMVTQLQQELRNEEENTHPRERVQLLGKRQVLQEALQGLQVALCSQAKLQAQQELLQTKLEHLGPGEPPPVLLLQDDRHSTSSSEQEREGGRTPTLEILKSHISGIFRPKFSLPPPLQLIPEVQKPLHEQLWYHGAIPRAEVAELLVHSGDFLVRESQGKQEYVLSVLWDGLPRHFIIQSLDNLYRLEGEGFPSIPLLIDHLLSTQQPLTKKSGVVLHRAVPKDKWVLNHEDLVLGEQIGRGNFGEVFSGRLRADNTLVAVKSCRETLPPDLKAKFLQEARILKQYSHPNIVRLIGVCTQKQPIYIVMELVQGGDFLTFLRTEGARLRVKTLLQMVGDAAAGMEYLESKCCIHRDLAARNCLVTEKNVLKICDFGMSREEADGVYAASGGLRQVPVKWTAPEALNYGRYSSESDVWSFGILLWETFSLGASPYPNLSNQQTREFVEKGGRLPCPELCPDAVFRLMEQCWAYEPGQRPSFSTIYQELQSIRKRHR

[1] = 1 h, 1 μM WEL028, 1 h preincubation

Chain of CSNK1A1 (CK1 alpha 1) (P48729 whole entry): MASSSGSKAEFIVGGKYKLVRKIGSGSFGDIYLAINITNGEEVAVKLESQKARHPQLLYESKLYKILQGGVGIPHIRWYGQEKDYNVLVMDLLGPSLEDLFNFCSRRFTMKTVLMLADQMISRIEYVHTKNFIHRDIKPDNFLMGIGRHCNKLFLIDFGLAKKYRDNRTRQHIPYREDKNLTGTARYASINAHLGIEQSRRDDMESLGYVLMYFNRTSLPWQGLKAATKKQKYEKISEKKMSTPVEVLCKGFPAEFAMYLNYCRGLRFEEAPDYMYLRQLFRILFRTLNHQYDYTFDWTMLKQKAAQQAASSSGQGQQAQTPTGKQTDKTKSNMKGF

## C#CCOc1ccc(Nc2ncc(Cl)c(Nc3ccccc3NC(=O)C=C)n2)c(OC)c1 [Compound 6]
ABL1; [1]
  inhibition at 1 µM: -3%
ABL1; ABL1, 1 µM, ZLYTE, ATP Km app, listed as WEL028, 1 µM
  Inhibition at 1 µM (%): -7% and 1%
CSNK1A1 (CK1 alpha 1); [1]
  inhibition at 1 µM: 9%
CSNK1A1 (CK1 alpha 1); CSNK1A1 (CK1 alpha 1), 1 µM, ZLYTE, ATP Km app, listed as WEL028, 1 µM
  Inhibition at 1 µM (%): 12%
CSNK1A1 (CK1 alpha 1); read-out: Inhibition at 1 µM (%), CSNK1A1 (CK1 alpha 1), 1 µM, ZLYTE, ATP Km app
  inhibition at 1 µM: 6%
CSNK1D (CK1 delta)
  inhibition at 1 µM: 18%
FYN A; [1]
  inhibition at 1 µM: 3%
FYN A; FYN A, 1 µM, LanthaScreen Binding, listed as WEL028, 1 µM
  Inhibition at 1 µM (%): -1% and 7%
GSK3A (GSK3 alpha); [1]
  inhibition at 1 µM: 6%
GSK3A (GSK3 alpha); GSK3A (GSK3 alpha), 1 µM, ZLYTE, ATP Km app, listed as WEL028, 1 µM
  Inhibition at 1 µM (%): 7%
GSK3A (GSK3 alpha); read-out: Inhibition at 1 µM (%), GSK3A (GSK3 alpha), 1 µM, ZLYTE, ATP Km app
  inhibition at 1 µM: 5%
HUNK; [1]
  inhibition at 1 µM: 20%
HUNK; HUNK, 1 µM, LanthaScreen Binding, listed as WEL028, 1 µM
  Inhibition at 1 µM (%): 21%
HUNK; read-out: Inhibition at 1 µM (%), HUNK, 1 µM, LanthaScreen Binding
  inhibition at 1 µM: 19%
ITK; 1 μM WEL028, 1 h preincubation
  Inhibition (%): -7%
ITK
  Inhibition at 1 µM (%): -3%
ITK; listed as WEL028, 1 µM
  Inhibition at 1 µM (%): -10%
MET (cMet); 1 μM WEL028, 1 h preincubation
  Inhibition (%): -4%
MET (cMet); MET (cMet), 1 µM, ZLYTE, ATP Km app, listed as WEL028, 1 µM
  Inhibition at 1 µM (%): 0% and -9%
RPS6KA4 (MSK2); 1 µM, ZLYTE, ATP Km app, listed as WEL028, 1 µM
  Inhibition at 1 µM (%): -4% and 6%
RPS6KA4 (MSK2); [1]
  inhibition at 1 µM: 1%
FES^S700C; concentration used for dialysis, 30 min, rt
  IC80: 231 nM
FES^S700C; inhibitor at IC80, WEL033 250 nM, replicates, listed as WEL028
  Relative FES labeling (% of vehicle), Pre-dialysis: 2.76% and 2.085% and 2.269%
FES^S700C; overnight dialysis at 4 °C, WEL033 250 nM, replicates, listed as WEL028
  Relative FES labeling (% of vehicle), Post-dialysis: 10.52% and 32.8765% and 11.5588%
